Patent US20030086928A1, “Compositions associated with complex formation and methods of use thereof” (priority 2000, published 2003)

Legend:
[1] = tested on: somatostatin mRNA in D5 cells; assay: Northern blot of somatostatin mRNA in D5 cells; type: cell-based, rat; details: 4 hours
From the text: In addition to cAMP, other stimuli such as the phorbol ester TPA can promote Ser133 phosphorylation of CREB; yet these stimuli are unable to induce target gene activation via CBP, reflecting either a block in CREB:CBP complex formation or in the subsequent recruitment of the transcriptional apparatus. To evaluate formation of CREB:CBP complexes in vivo, NIH 3T3 cells expressing chromosomal copies of the rat somatostatin gene, hereafter referred to as D5 cells (Montminy et al. (1986) J Neurosci 6:803-813) were used. […] Western blot assays of total CREB and phospho (Ser133) CREB (P-CREB) levels were performed in control (C) or treated D5 cells exposed to either forskolin (F) or TPA (T) for 30 minutes. Northern blot assays were then performed to detect somatostatin (SOM) and tubulin (TUB) mRNA levels in control D5 cells (C) and in D5 cells treated with forskolin (F) or TPA (T) for 4 hours.

[2] = tested on: phospho (Ser133) CREB in D5 cells; assay: Ser133 phosphorylation of CREB in D5 cells (Western blot / immunofluorescence with antiserum 5322); type: cell-based
Method: (§1) D5 cells were grown on glass coverslips and stimulated with forskolin and 3-isobutyl-1-methylxanthine (IBMX) or 12-O-tetradecanoyl phorbol acetate (TPA) for 10 minutes. The cells were methanol-fixed at […] for 5 min followed by three 5 min washes in PBS. Cells were blocked for 30 min with 3% BSA in PBS and donkey serum diluted 1:50. Primary antibodies were diluted in 3% BSA/PBS to 1:2000 for the phospho-CREB specific antibody 5322 or 1:100 (3 μg/ml) for the KID/KIX specific antibody. The cells were incubated with the primary antibodies for 1 hr at RT, followed by 3 washes with PBS and a 1 hr incubation with Biotin-SP-conjugated Donkey anti rabbit IgG diluted 1:200 in 3% BSA/PBS. After 3 washes in PBS, Texas Red conjugated Streptavidin was added at 1:200 dilution in 3% BSA/PBS. After one hour incubation, cells were washed 3 times in PBS and mounted in 90% glycerol/PBS containing 1 mg/ml phenylenediamine.
In addition to cAMP, other stimuli such as the phorbol ester TPA can promote Ser133 phosphorylation of CREB; yet these stimuli are unable to induce target gene activation via CBP, reflecting either a block in CREB:CBP complex formation or in the subsequent recruitment of the transcriptional apparatus. […]

[3] = tested on: T1, CREB:CBP complexes in D5 cells; assay: Immunofluorescence of CREB:CBP complexes in D5 cells with αKK antiserum; type: cell-based; details: 10 minutes
T1 construct: endogenous in cells; host or cells: D5 cells (NIH 3T3 with rat somatostatin gene)
Method: as §1
D5 cells were then treated with forskolin or TPA for 10 minutes.

T1 sequence (Q01147 whole entry): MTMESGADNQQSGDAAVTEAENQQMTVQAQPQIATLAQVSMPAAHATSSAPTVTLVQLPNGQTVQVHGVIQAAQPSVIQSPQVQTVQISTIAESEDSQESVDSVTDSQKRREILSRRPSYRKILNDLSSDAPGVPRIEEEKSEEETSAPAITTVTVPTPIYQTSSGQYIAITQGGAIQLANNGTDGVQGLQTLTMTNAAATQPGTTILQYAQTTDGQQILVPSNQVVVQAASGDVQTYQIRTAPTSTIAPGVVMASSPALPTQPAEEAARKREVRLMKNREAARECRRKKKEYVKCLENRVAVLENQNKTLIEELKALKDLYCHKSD
T1 sequence (P45481 2-2441 limits assumed, further chain): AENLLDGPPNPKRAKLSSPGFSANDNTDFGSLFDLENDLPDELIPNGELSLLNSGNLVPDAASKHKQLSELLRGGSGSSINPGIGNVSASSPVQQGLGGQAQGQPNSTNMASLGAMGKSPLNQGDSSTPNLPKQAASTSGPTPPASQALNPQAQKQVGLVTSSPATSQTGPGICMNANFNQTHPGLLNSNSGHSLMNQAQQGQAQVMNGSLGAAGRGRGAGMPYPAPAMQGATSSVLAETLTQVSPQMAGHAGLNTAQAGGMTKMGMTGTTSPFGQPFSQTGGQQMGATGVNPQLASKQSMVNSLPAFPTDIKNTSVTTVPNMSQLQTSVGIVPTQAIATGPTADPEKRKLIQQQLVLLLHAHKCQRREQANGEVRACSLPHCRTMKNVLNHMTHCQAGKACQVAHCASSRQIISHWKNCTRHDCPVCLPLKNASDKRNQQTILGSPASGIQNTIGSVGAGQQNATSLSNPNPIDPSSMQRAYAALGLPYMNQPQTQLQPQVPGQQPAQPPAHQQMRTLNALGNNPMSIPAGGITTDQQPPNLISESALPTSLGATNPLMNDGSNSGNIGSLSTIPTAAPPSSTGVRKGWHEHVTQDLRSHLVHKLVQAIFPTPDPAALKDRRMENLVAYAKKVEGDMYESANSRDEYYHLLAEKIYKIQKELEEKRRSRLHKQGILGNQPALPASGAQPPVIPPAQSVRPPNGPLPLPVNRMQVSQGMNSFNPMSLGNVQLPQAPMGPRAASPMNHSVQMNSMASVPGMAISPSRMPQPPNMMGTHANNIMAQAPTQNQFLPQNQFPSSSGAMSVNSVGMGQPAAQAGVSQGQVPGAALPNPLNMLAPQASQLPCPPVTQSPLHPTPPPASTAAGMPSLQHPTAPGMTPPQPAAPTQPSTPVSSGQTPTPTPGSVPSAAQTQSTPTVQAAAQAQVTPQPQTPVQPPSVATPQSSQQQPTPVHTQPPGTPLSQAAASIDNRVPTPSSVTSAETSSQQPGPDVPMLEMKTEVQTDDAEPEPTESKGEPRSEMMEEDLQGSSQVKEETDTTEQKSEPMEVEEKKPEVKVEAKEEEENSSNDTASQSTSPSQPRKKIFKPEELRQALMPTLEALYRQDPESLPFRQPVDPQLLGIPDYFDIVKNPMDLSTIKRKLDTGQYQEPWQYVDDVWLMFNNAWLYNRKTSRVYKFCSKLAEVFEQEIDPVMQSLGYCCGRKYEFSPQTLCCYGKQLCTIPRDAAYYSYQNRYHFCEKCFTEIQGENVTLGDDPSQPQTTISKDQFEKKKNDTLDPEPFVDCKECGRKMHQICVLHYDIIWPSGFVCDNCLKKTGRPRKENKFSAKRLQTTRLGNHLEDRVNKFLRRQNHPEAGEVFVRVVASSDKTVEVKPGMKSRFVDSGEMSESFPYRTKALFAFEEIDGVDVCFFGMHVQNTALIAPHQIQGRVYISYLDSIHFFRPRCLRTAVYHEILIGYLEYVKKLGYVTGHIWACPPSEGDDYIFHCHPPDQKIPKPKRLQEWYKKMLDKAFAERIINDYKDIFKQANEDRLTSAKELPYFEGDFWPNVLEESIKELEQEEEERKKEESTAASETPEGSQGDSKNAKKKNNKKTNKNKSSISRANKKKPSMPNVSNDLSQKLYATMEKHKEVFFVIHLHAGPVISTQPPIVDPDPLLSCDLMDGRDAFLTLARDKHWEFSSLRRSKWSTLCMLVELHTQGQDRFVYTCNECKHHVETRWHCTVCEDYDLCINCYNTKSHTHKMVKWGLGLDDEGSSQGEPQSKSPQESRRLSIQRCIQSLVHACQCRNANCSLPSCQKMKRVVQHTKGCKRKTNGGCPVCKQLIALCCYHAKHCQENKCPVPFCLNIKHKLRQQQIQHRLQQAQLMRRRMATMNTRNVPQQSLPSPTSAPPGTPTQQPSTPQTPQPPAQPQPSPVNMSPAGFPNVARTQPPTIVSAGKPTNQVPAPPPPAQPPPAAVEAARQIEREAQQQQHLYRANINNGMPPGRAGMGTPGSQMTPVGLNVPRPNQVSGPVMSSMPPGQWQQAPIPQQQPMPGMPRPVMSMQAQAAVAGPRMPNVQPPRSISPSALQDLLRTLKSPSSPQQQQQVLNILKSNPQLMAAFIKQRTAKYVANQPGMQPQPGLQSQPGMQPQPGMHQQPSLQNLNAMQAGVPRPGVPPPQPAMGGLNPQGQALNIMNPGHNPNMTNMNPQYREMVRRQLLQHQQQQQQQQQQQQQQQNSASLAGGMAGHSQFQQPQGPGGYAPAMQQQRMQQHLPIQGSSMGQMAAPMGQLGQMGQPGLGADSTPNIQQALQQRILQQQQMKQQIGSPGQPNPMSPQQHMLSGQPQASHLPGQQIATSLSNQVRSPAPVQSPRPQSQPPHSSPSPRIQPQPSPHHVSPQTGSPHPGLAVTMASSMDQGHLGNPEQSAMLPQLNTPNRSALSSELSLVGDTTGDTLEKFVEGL

| Structure (SMILES) | somatostatin mRNA accumulation [1] | accumulation of phospho (Ser133) CREB ([2]; 10 minutes, immunofluorescence) | Ser133 phosphorylation of CREB ([2]; 30 minutes, Western blot with antiserum 5322) | CREB:CBP complex formation detected with αKK antiserum [3] |
| --- | --- | --- | --- | --- |
| C=C[C@@]1(C)CC(=O)[C@]2(O)[C@@]3(C)[C@@H](O)CCC(C)(C)[C@@H]3[C@H](O)[C@H](OC(C)=O)[C@@]2(C)O1 [forskolin] | 5 fold |  |  |  |
| CCCCCCCCCCCCCC(=O)O[C@@H]1[C@@H](C)[C@@]2(O)[C@@H](C=C(CO)C[C@]3(O)C(=O)C(C)=C[C@@H]23)[C@@H]2C(C)(C)[C@]12OC(C)=O [TPA, 12-O-tetradecanoyl phorbol acetate] | no discernible effect | comparable levels of Ser133 phosphorylation | induced Ser133 phosphorylation of CREB with comparable stoichiometry to forskolin induction | no CREB:CBP complexes were detected |
